According to US7517849B1, “Inhibition of ABC transporters by transmembrane domain analogs” (priority 1999, dated 2009):
Read-outs that look alike come from different tables or passages of the source. Where no end group is shown, it is not given here.

Key:
[1] = target: T1, human P-gp (Homo sapiens, UniProt P08183); assay: Fluorogenic substrate (rhodamine 123) accumulation/efflux assay by FACS in P-gp-expressing KB 8-5 cells; type: cell-based
T1 construct: P-gp-expressing KB 8-5 cells were trypsinized; endogenous in cells; host or cells: KB 8-5 cells
T1 sequence (P08183 whole entry): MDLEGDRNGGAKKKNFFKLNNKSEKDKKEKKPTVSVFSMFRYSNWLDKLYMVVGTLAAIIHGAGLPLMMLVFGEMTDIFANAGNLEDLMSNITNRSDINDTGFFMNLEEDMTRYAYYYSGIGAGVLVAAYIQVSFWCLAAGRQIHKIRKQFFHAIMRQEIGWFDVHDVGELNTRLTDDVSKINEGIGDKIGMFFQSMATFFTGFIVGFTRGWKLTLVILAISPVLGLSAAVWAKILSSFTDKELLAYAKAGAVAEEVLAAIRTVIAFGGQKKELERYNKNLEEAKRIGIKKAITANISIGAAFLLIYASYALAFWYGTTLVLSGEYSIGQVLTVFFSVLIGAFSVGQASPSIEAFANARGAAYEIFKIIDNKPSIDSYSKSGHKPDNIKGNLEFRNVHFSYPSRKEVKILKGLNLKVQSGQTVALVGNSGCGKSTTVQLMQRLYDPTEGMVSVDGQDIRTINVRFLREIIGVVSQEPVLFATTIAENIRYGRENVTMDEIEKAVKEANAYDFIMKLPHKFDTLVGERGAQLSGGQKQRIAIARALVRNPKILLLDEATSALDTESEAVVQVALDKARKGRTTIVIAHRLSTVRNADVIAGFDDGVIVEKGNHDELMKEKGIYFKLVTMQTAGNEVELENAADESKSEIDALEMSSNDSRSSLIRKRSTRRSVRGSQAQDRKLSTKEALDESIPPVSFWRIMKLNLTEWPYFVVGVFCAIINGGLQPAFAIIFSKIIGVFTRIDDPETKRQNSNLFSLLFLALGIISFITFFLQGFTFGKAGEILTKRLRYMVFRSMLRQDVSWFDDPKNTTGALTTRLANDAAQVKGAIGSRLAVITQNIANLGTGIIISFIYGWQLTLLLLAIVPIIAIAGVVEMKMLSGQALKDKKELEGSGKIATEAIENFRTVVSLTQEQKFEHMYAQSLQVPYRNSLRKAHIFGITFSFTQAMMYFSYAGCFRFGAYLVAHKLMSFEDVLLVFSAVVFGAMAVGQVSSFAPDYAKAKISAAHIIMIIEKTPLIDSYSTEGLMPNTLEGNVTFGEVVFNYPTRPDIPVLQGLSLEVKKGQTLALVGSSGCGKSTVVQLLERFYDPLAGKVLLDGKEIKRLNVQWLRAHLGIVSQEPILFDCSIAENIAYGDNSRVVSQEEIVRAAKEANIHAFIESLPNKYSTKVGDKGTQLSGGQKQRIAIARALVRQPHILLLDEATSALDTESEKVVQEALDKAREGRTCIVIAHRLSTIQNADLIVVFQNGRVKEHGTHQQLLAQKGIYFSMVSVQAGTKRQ
Protocol: The activity of the antagonists was tested in KB 8-5 cells which express human P-gp (described in Hrycyna et al.; Biochemistry 37:13660-73 (1998)). Analyses of P-gp transport activity were conducted by fluorogenic substrate accumulation assays utilizing fluorescence activated cell sorting (FACS) analysis, as described in Dey, S. et al., Biochemistry 38:6630-9 (1999). […] In initial screens, […] stock solutions of TM peptides in DMSO were diluted in medium to give 10-50 μM solutions. Active compounds were then tested at progressively lower concentrations.
P-gp-expressing KB 8-5 cells were trypsinized, washed with 15 mL Iscove's modified Dulbecco's medium (IMEM), supplemented with 5% fetal bovine serum (FBS), and resuspended in the same medium. […] After the incubation, the cells were pelleted by centrifugation at 200×g and incubated further in their respective rhodamine-free media (+/−TM peptide) for an additional 45 min at 37° C. in the dark. Cells were then pelleted and resuspended in 400 μL of phosphate-buffered saline without Ca+2 or Mg+2 and immediately analyzed by fluorescence activated cell sorting (FACS).
Incubations of KB 8-5 cells were carried out as described in the previous Example, except that varying concentrations of the analog called TM 6 (see Example 4, supra) were used as the TM polypeptide.

[2] = test system: Human colon cancer cells HCT15; assay: Sensitisation of HCT15 cells to adriamycin, sulforhodamine B toxicity assay; type: cell-based; conditions: HCT-15, 96 h, four days, without analog
[3] = target: human P-glycoprotein (product of MDR1 gene) (human, UniProt P08183 1-1280); assay: cell-based or functional assay
human P-glycoprotein (product of MDR1 gene), sequence (P08183 whole entry S893A): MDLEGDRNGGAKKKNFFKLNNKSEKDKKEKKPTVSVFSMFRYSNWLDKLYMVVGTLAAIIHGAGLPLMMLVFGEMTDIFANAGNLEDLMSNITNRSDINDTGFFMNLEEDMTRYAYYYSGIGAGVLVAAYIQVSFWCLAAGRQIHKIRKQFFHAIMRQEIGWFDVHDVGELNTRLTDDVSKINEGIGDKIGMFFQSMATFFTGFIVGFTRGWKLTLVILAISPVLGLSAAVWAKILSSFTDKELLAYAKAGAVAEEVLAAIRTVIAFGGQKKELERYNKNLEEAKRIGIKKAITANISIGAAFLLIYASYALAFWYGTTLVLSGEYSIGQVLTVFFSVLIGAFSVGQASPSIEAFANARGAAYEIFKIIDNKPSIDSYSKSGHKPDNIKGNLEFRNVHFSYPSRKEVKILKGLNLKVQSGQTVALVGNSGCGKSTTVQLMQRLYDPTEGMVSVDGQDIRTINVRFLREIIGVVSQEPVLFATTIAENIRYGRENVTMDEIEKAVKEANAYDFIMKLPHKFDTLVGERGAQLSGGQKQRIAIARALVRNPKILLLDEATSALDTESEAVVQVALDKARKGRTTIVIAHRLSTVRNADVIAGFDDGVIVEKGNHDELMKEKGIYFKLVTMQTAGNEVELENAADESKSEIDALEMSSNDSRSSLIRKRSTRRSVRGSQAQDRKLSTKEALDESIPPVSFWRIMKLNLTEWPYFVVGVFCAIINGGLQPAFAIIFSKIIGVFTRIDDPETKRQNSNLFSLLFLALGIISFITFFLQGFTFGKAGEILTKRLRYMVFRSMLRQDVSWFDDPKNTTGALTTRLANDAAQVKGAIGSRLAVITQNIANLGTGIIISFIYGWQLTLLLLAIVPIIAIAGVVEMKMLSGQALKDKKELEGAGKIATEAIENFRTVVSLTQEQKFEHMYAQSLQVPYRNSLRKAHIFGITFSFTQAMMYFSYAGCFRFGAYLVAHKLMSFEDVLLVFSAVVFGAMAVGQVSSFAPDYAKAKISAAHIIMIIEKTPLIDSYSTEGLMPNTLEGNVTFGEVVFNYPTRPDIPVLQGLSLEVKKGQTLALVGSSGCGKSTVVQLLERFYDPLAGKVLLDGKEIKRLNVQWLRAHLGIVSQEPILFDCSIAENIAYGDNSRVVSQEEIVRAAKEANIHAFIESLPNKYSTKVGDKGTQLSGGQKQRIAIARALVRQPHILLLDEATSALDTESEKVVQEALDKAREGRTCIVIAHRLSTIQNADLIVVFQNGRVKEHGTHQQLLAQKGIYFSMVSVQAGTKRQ

Q: How did the “inhibition of rhodamine efflux” value ([1]; 5 μM TM peptide, KB 8-5 cells, 0.5 μg/mL rhodamine 123, FACS) turn out when DSGEYSIGQVLTVFFSVLIGAFSV [TM peptide 6] was run?
A: inhibited rhodamine efflux

Q: What about the “activity as inhibitor of the MDR1 ABC transporter (in words)” value (shortened to “activity as inhibitor”) ([1]; cells expressing MDR1, efflux of substrates) of the same molecule?
A: most active

Q: What about the “inhibitory power compared with cyclosporin A” value ([1]; positive control 5 μM cyclosporin A, KB 8-5 cells) of the same molecule?
A: not as powerful an inhibitor as cyclosporin A

Q: What about the “dose/response inhibition of P-gp” value ([1]; varying concentrations, KB 8-5 cells, rhodamine 123 efflux) of the same molecule?
A: inhibited P-gp in a dose dependent manner

Q: “ISIGAAFLLIYASYALAFWYGTTDD-OH [TM5 Analog 1]” was tested. Which “activity as inhibitor” value [1] did it give?
A: active

Q: With `COc1cccc2c1C(=O)c1c(O)c3c(c(O)c1C2=O)C[C@@](O)(C(=O)CO)C[C@@H]3O[C@H]1C[C@H](N)[C@H](O)[C@H](C)O1` [adriamycin] as the molecule, how does the IC50 [2] read?
A: 150 ± 10 nM

Q: With “LLIYASYALAFWYGTTLVLSGEGSSG-OH [TM5 analog]” as the molecule, how does the “activity as inhibitor” value [1] read?
A: strongest inhibitor of the MDR1 ABC transporter yet tested

Q: What about the “inhibition of rhodamine 123 efflux compared with 5 micromolar cyclosporin” value [1] of the same molecule?
A: same degree of inhibition of rhodamine 123 efflux from MDR1 expressing cells as 5 micromolar cyclosporin

Q: DSGEYSIGQVLTVFFSVLIGAFSV [TM6 analog of MDR1 (synthetic peptide), Analog 1] was tested. Which “IC50 of adriamycin (sulforhodamine B toxicity assay, HCT15 cells) in the presence of 1 µM TM6” value [3] did it give?
A: 80 nM
